Source: ChEMBL document CHEMBL1136792, “Synthesis of chiral 1-[omega-(4-chlorophenoxy)alkyl]-4-methylpiperidines and their biological evaluation at sigma1, sigma2, and sterol delta8-delta7 isomerase sites” (J Med Chem, 2003)
pKi: −log10 of the molar value.

How the values were obtained:
Sigma 2 receptor = test: Inhibition of [3H]DTG binding to Sigma receptor type 2 in rat liver membrane; format: cell membranes
[1] = biological target: T1, 3-beta-hydroxysteroid-Delta(8),Delta(7)-isomerase (Cavia porcellus, UniProt Q60490); test: Inhibition of [3H]-emopamil binding to Sterol delta 8-delta 7 isomerase in guinea pig liver membrane; format: cell membranes
T1 sequence (Q60490 whole entry): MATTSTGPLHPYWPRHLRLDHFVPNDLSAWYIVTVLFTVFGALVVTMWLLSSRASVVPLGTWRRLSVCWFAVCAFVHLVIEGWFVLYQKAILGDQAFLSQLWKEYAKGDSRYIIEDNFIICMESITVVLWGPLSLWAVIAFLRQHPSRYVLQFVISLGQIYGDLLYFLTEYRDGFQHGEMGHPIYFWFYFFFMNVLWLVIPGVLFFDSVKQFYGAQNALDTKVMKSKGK

Cavia porcellus = species: Cavia porcellus; test: Relative affinity for sterol delta-(8)-delta-(7) isomerase over sigma-1 receptor
[2] = biological target: Sigma non-opioid intracellular receptor 1 (Homo sapiens) (UniProt Q99720); test: Relative affinity for sigma-2 over sigma-1 receptors
Sequence of Sigma non-opioid intracellular receptor 1 (Homo sapiens) (Q99720 whole entry): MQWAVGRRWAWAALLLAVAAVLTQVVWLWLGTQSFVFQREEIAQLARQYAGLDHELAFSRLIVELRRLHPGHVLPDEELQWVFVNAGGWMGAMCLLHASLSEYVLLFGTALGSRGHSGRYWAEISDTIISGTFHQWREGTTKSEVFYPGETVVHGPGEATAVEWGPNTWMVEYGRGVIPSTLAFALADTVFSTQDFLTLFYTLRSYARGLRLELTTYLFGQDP

What does the source list for `CC1CCN([C@@H](C)CCOc2ccc(Cl)cc2)CC1`?
pKi (Sigma 2 receptor): 7.50; pKi [1]: 7.43

With `CC1CCN(CCOc2ccc(Cl)cc2)CC1` as the molecule, how does the pKi (Sigma 2 receptor) read?
The pKi was 6.62.

And the pKi [1]?
Its pKi is 8.43.

Which results are given for `CC1CCN(CC[C@@H](C)Oc2ccc(Cl)cc2)CC1`?
pKi (Sigma 2 receptor): 7.86; pKi [1]: 7.52

With `C(/C=C/c1ccc2c(c1)OCO2)=C\CN1CCCCC1` as the molecule, how does the pKi (Sigma 2 receptor) read?
The pKi was 6.26.

With `CC1CCN([C@H](C)CCOc2ccc(Cl)cc2)CC1` as the molecule, how does the pKi (Sigma 2 receptor) read?
Its pKi is 7.82.

What about the pKi [1] of the same molecule?
The pKi was 8.11.

How did the pKi (Sigma 2 receptor) turn out when `CC1CCN(C[C@@H](C)Oc2ccc(Cl)cc2)CC1` was run?
Its pKi is 6.50.

And the pKi [1]?
Its pKi is 8.47.

What does the source list for `CC1CCN([C@H](C)COc2ccc(Cl)cc2)CC1`?
pKi (Sigma 2 receptor): 7.28; Ratio (Cavia porcellus): 23; Ratio [2]: 44; pKi [1]: 7.56

`CC(C(O)c1ccc(O)cc1)N1CCC(Cc2ccccc2)CC1` (racemic) [IFENPRODIL] was tested. Which pKi [1] did it give?
Its pKi is 8.57.

With `CC1CCN([C@@H](C)COc2ccc(Cl)cc2)CC1` as the molecule, how does the pKi (Sigma 2 receptor) read?
The pKi was 6.73.

And the Ratio (Cavia porcellus)?
The Ratio was 11.

And the Ratio [2]?
The Ratio was 547.

And the pKi [1]?
The pKi was 8.43.

What does the source list for `CC1CCN(C[C@H](C)COc2ccc(Cl)cc2)CC1`?
pKi (Sigma 2 receptor): 7.39; Ratio (Cavia porcellus): 13; Ratio [2]: 37; pKi [1]: 7.84

How did the pKi (Sigma 2 receptor) turn out when `CC1CCN(C[C@H](C)Oc2ccc(Cl)cc2)CC1` was run?
The pKi was 6.48.

What about the pKi [1] of the same molecule?
Its pKi is 7.45.

What does the source list for `CC1CCN(CC[C@H](C)Oc2ccc(Cl)cc2)CC1`?
pKi (Sigma 2 receptor): 7.18; pKi [1]: 7.92

With `CC1CCN(CCCOc2ccc(Cl)cc2)CC1` as the molecule, how does the pKi (Sigma 2 receptor) read?
The pKi was 7.41.

And the pKi [1]?
The pKi was 8.02.

Which results are given for `CC1CCN(C[C@@H](C)COc2ccc(Cl)cc2)CC1`?
pKi (Sigma 2 receptor): 7.21; Ratio (Cavia porcellus): 11; Ratio [2]: 36; pKi [1]: 7.73
